Key:
corticosterone [1] = test: ACTH excess model: mice implanted with ACTH-secreting corticotroph AtT-20 tumor cells; type: in vivo, mouse; settings: mice with AtT-20 tumor cells, daily oral doses
Method: (§1) Disease models mimicking states of ACTH excess and hypercortisolism included rats administered exogenous ACTH (1-24) via subcutaneous osmotic pump over 7 days and mice implanted with ACTH-secreting corticotroph AtT-20 tumor cells; animals received daily oral doses of placebo or Compound 1. […] However, six days after discontinuation of the highest dose of Compound 1 (75 mg/kg for 15 days), Ang-II stimulated aldosterone was suppressed, but sodium and potassium levels were normal.

aldosterone = test: ACTH- and Angiotensin-II-stimulated aldosterone in vivo
Method: as §1

[2] = system: other human melanocortin receptor subtypes; test: Selectivity over other melanocortin receptor subtypes; type: binding; settings: MC2R vs other subtypes
MC2R [3] = molecular target: T1, MC2R (Homo sapiens, UniProt Q01718); test: ACTH-mediated G-protein activation and cAMP production; type: biochemical
[4] = Effect of food on absorption; type: in vivo, human; settings: oral tablet
Method: Participants will receive Compound 1 at the appropriate dose for their cohort as a single daily dose for 10 days at approximately 8 am. Tablets will be taken orally with 240 mL of water.

MC2R [5] = molecular target: T1, MC2R; test: MC2R antagonist affinity / ACTH binding to the receptor
5-HT1B receptor = 5-HT1B receptor (Homo sapiens, UniProt P28222); test: Screen for potential off-target activities; type: biochemical
[6] = system: corticosterone secretion after ACTH (1-24); test: ACTH (1-24) challenge, corticosterone secretion in rats; type: in vivo, rat
[7] = Repeat dose general toxicity study in rat; type: in vivo
Method: (§2) The overall nonclinical safety of Compound 1 was assessed in 28-day and 3-month repeat dose general toxicity studies in rat and dog and in a battery of in vitro and in vivo genotoxicity and safety pharmacology studies.

[8] = Previous study in healthy volunteers; type: in vivo, human
Source text: It has therefore been identified as an AESI in this study and may lead to dose limiting toxicity.

[9] = In vitro metabolism in plasma, liver microsomes and liver S9; type: in vitro ADME, various species (including human); settings: liver microsomes, liver S9
Source text: (§3) In vitro studies evaluated the metabolism of Compound 1 in plasma, liver microsomes, and/or 9000 g supernatant fraction of the liver homogenate (liver S9) from various species (including human).

corticosterone [10] = test: ACTH excess model: rats given exogenous ACTH (1-24) via subcutaneous osmotic pump over 7 days; type: in vivo, rat; settings: ACTH (1-24) osmotic pump, daily oral doses
Method: as §1

[11] = Safety pharmacology studies
Method: as §2

[12] = Repeat dose general toxicity study in dog; type: in vivo
Method: as §2

[13] = In vitro and in vivo genotoxicity studies; settings: in vitro and in vivo battery
Method: as §2

CYP2C8 = molecular target: T2, CYP2C8 (Homo sapiens, UniProt P10632); test: CYP involvement in metabolic clearance; type: in vitro ADME
T2 sequence (P10632 1-490): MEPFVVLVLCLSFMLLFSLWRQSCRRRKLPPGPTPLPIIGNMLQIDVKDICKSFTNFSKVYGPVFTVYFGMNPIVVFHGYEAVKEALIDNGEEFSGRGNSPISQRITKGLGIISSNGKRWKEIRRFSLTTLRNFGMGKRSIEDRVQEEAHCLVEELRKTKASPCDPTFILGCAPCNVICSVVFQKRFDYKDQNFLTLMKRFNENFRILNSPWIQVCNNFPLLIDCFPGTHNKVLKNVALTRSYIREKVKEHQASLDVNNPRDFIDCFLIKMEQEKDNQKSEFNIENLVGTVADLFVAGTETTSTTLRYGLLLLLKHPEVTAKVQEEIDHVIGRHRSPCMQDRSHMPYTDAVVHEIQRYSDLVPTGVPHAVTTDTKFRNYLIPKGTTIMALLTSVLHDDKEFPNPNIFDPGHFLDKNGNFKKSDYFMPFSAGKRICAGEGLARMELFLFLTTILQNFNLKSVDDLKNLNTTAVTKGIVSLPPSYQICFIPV
Source text: as §3

CYP2D6 = CYP2D6 (Homo sapiens, UniProt P10635); test: CYP involvement in metabolic clearance; type: in vitro ADME
Source text: as §3

CYP3A4 = CYP3A4 (Homo sapiens, UniProt P08684); test: CYP involvement in metabolic clearance; type: in vitro ADME
Source text: as §3

[14] = six days after discontinuation of 75 mg/kg for 15 days

T1 sequence (Q01718 whole entry): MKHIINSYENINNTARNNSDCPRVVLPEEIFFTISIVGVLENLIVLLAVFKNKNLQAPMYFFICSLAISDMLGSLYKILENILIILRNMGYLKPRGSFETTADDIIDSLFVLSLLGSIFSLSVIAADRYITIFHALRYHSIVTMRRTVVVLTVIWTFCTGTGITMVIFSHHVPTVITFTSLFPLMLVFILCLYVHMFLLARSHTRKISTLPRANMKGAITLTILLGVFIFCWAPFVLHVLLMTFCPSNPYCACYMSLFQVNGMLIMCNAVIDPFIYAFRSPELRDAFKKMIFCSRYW
T1 sequence (Q8TCY5 whole entry partner): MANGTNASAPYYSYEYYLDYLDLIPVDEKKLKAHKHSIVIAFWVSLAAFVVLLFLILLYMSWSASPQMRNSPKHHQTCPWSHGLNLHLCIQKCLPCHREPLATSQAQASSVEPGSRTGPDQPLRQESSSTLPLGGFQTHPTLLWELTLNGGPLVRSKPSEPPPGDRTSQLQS
Chain of 5-HT1B receptor (P28222 whole entry): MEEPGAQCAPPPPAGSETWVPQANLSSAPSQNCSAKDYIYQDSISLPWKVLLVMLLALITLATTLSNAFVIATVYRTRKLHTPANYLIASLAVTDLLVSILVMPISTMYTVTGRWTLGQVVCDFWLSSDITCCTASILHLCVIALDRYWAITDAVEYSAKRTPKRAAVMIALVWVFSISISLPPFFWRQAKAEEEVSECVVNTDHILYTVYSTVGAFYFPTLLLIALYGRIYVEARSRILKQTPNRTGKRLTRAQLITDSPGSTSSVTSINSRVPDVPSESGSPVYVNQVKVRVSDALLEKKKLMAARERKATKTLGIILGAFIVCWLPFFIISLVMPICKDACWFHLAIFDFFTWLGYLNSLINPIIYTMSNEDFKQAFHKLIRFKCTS
Chain of CYP2D6 (P10635 whole entry): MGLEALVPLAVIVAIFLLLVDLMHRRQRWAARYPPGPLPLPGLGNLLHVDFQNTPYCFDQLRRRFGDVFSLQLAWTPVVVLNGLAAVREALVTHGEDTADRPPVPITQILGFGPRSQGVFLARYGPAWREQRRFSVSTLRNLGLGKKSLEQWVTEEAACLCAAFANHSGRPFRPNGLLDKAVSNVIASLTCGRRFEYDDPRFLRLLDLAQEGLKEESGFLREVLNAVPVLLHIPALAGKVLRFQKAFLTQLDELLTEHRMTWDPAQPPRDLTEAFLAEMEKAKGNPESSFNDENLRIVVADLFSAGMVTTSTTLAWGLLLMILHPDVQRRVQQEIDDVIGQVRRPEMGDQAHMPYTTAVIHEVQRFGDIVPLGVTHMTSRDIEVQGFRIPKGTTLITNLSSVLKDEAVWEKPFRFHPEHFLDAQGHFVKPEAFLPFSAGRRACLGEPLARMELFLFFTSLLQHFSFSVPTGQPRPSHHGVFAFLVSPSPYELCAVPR
Chain of CYP3A4 (P08684 whole entry): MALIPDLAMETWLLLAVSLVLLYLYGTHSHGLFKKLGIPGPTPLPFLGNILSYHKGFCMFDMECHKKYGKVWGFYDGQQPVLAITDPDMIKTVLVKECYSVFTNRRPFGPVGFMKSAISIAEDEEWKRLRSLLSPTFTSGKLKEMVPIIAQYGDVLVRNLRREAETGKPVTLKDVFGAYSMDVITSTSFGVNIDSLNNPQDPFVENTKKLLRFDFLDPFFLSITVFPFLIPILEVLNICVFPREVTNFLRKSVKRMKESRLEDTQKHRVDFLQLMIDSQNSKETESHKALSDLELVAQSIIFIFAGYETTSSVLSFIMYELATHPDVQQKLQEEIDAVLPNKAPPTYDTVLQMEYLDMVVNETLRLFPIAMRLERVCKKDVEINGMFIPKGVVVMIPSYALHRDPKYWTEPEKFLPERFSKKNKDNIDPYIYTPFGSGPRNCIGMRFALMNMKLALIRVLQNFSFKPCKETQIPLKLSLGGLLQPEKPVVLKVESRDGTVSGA

Question: What does the source list for CCOc1ccccc1-c1ccc(N2CCN(C(=O)C3(C(F)(F)F)CCC3)C[C@H]2CC)c(C(=O)N[C@@H]2CN3CCC2CC3)n1 [Compound 1, 6-(2-ethoxyphenyl)-3-((R)-2-ethyl-4-(1-(trifluoromethyl)cyclobutane-1-carbonyl)piperazin-1-yl)-N—((S)-quinuclidin-3-yl) picolinamide]?
Answer: adrenal gland effect (corticosterone [1]): dose-dependent adrenal gland atrophy; decrease of corticosterone values on Days 1 and 7 (maximum) (corticosterone [1]): ≤ 92%; Angiotensin-II stimulation of aldosterone (aldosterone; during treatment): did not affect; ACTH-stimulated aldosterone levels (aldosterone; in vivo): reduced; Ang-II stimulated aldosterone after discontinuation (aldosterone; [14]): suppressed; sodium and potassium levels after discontinuation (aldosterone; [14]): normal; selectivity over other human melanocortin receptor subtypes [2]: > 2900 fold; ACTH-mediated G-protein activation and subsequent cAMP production (MC2R [3]): potently blocked; effect of food on absorption [4]: minimal effect of food on absorption; ACTH binding to the receptor (MC2R [5]): potently blocked; Ki (MC2R [5]): < 10 nM; selectivity for hMC2R over 5-HT1B (5-HT1B receptor): more than 2200 fold; agonist activity against the 5-HT1B receptor (5-HT1B receptor; off-target screen): no agonist activity; antagonist activity against the 5-HT1B receptor (5-HT1B receptor; off-target screen): weak antagonist; corticosterone secretion after 1 μg/kg ACTH (1-24) ([6]; oral, 3 and 10 mg/kg, male and female rats): dose-dependently suppressed; corticosterone after ACTH administration at 1, 4, 24, and 48 hours after a single dose ([6]; single dose, time course): dose-dependent suppression of corticosterone at 1 and 4 hours only; target organ toxicity finding ([7]; 28-day rat study): foamy macrophages in the lungs; consistency of rat lung findings with drug-induced PLD ([7]; rat lung): not to be consistent with drug-induced PLD; adverse event observed during treatment [8]: Glucocorticoid deficiency was observed; primary metabolic pathways involved in metabolic clearance [9]: oxidative metabolism, resulting in formation of hydroxylated and desmethyl metabolites; adrenal gland effect (corticosterone [10]): dose-dependent adrenal gland atrophy; decrease of corticosterone values on Days 1 and 7 (maximum) (corticosterone [10]): ≤ 92%; adverse effects on core organ systems (cardiovascular, central nervous, respiratory) [11]: No findings; target organ toxicity finding ([12]; 3-month dog study): adrenal and liver atrophy; adrenal gland and liver findings with hydrocortisone supplementation ([12]; dog): mitigated with hydrocortisone supplementation; genotoxic risk [13]: No findings indicating significant genotoxic risk; role of CYP2C8 in catalyzing oxidative metabolism (CYP2C8): may also have a minor contribution; role of CYP2D6 in catalyzing oxidative metabolism (CYP2D6): may also have a minor contribution; role of CYP3A4 in catalyzing oxidative metabolism (CYP3A4): plays a key role

— patent US20260232657A1, “MELANOCORTIN SUBTYPE-2 RECEPTOR (MC2R) ANTAGONIST FOR THE TREATMENT OF ACTH-DEPENDENT CUSHING'S SYNDROME” (CRINETICS PHARMACEUTICALS, INC., priority 2023, published 2026)
